ChEMBL document CHEMBL5724696, “Autophagy assay results for EUbOPEN Chemogenomics Library” (2024)

Experiments:
Type in all cases: functional, Homo sapiens
U2OS [1] = test: (§1) Here: values are normalized to the negative (DMSO; defined as 0% autophagy induction) and positive (250nM Torin1; mTOR inhibitor; defined as maximal inducer of autophagy = 100%) control compounds and represented as % of autophagy induction. […] The impact of autophagy induction on cells is complex and depends on the affected target. As such, the magnitude of a phenotype may not be equally mirrored in the %-value of autophagy induction and vice versa. The dynamics of the induction may indicate the mode of activation: e.g. activation via phosphorylation or a signaling cascade may occur fast, while activation via transcription factors may take considerably longer. […] Of note, treatment concentrations may be sub-optimal for specific compounds, leading to false negative annotations.; details: Culturing Media DMEM, 1 % Penicillin/Streptomycin, 10% Fetal bovin serum Add-On: No, Screening Media Control DMEM, Screening Media Samples DMEM
TERT-RPE1 = test: as §1; details: Culturing Media DMEM/F12 (1:1), 1 % Penicillin/Streptomycin, 10% Fetal bovin serum Add-On: No, Screening Media Control DMEM/F12 (1:1), Screening Media Samples DMEM/F12 (1:1)
U2OS [2] = test: as §1; details: Culturing Media DMEM, 1 % Penicillin/Streptomycin, 10% Fetal bovin serum Add-On: No, Screening Media Control DMEM, Screening Media Samples DMEM; remark: listed apart in the source
[3] = Compound Concentration 0.5 uM, Timepoint 12 hours
[4] = Compound Concentration 0.5 uM, Timepoint 24 hours
[5] = Compound Concentration 0.5 uM, Timepoint 36 hours
[6] = Compound Concentration 0.5 uM, Timepoint 60 hours
[7] = Compound Concentration 2 uM, Timepoint 12 hours
[8] = Compound Concentration 2 uM, Timepoint 24 hours
[9] = Compound Concentration 2 uM, Timepoint 36 hours
[10] = Compound Concentration 2 uM, Timepoint 60 hours
[11] = Compound Concentration 10 uM, Timepoint 12 hours
[12] = Compound Concentration 10 uM, Timepoint 24 hours
[13] = Compound Concentration 10 uM, Timepoint 36 hours
[14] = Compound Concentration 10 uM, Timepoint 60 hours

Structure (SMILES)	autophagy induction (U2OS [1]; [3])	autophagy induction (U2OS [1]; [4])	autophagy induction (U2OS [1]; [5])	autophagy induction (U2OS [1]; [6])	autophagy induction (U2OS [1]; [7])	autophagy induction (U2OS [1]; [8])	autophagy induction (U2OS [1]; [9])	autophagy induction (U2OS [1]; [10])	autophagy induction (U2OS [1]; [11])	autophagy induction (U2OS [1]; [12])	autophagy induction (U2OS [1]; [13])	autophagy induction (U2OS [1]; [14])	autophagy induction (TERT-RPE1; [3])	autophagy induction (TERT-RPE1; [4])	autophagy induction (TERT-RPE1; [5])	autophagy induction (TERT-RPE1; [6])	autophagy induction (TERT-RPE1; [7])	autophagy induction (TERT-RPE1; [8])	autophagy induction (TERT-RPE1; [9])	autophagy induction (TERT-RPE1; [10])	other results
COc1ccnc(N2CCC3(CCCN(Cc4c[nH]c5ccccc45)C3=O)CC2)n1	-0.8639%	3.062%	-2.159%	0.6428%	14.1219%	7.888%	7.881%	5.533%	-0.07351%	-0.8676%	0.7982%	-3.188%	-7.48%	-12.7476%	-12.8002%	-18.0789%	-3.2646%	-8.655%	-9.0208%	-13.8382%	autophagy induction (TERT-RPE1; [11]): -6.8833%; autophagy induction (TERT-RPE1; [12]): -7.1204%; autophagy induction (TERT-RPE1; [13]): -8.728%; autophagy induction (TERT-RPE1; [14]): -9.531%; autophagy induction (U2OS [2]; [3]): 6.725%; autophagy induction (U2OS [2]; [4]): 2.47%; autophagy induction (U2OS [2]; [5]): 0.2405%; autophagy induction (U2OS [2]; [6]): -0.1995%; autophagy induction (U2OS [2]; [7]): -9.208%; autophagy induction (U2OS [2]; [8]): -5.729%; autophagy induction (U2OS [2]; [9]): -5.289%; autophagy induction (U2OS [2]; [10]): -3.421%; autophagy induction (U2OS [2]; [11]): 2.478%; autophagy induction (U2OS [2]; [12]): -1.409%; autophagy induction (U2OS [2]; [13]): -1.806%; autophagy induction (U2OS [2]; [14]): -1.259%
C[C@H](CO)Nc1nc(SCc2cccc(Cl)c2F)nc2[nH]c(=O)sc12	-2.252%	-5.227%	-4.361%	0.5148%	-3.135%	-6.665%	-3.053%	-3.815%	-3.826%	1.119%	5.199%	9.3581%	-10.6276%	-12.9518%	-15.2456%	-20.3989%	-5.728%	-8.929%	-11.3534%	-17.566%	autophagy induction (TERT-RPE1; [11]): -4.7585%; autophagy induction (TERT-RPE1; [12]): -7.211%; autophagy induction (TERT-RPE1; [13]): -11.193%; autophagy induction (TERT-RPE1; [14]): -13.8782%; autophagy induction (U2OS [2]; [3]): 5.635%; autophagy induction (U2OS [2]; [4]): -1.036%; autophagy induction (U2OS [2]; [5]): -0.662%; autophagy induction (U2OS [2]; [6]): 0.3997%; autophagy induction (U2OS [2]; [7]): -11.0736%; autophagy induction (U2OS [2]; [8]): -4.995%; autophagy induction (U2OS [2]; [9]): -2.19%; autophagy induction (U2OS [2]; [10]): -0.5002%; autophagy induction (U2OS [2]; [11]): 9.288%; autophagy induction (U2OS [2]; [12]): 6.328%; autophagy induction (U2OS [2]; [13]): 3.708%; autophagy induction (U2OS [2]; [14]): 1.649%
